Measured values as given in patent US8785424B2, “ngCycloartanone derivatives with anticancer activity” (Pierre Fabre Medicament, priority 2009, dated 2014).
Structures can show the parent of a compound that is named as a salt.

Test system: proteasome
Assay: Cellular proteasome inhibition test: accumulation of 4Ub-Luc reporter (luciferase activity) in DLD-1 4Ub-Luc cell line
Assay type: cell-based, human
Conditions: DLD-1 4Ub-Luc cells, 8 hours, epoxomicin = 100%
Description: Biological tests were carried out according to protocols described in the following articles: Ausseil F. et al. J. Biomol Screen. 2007, 12, 106-116 and Vandenberghe I. et al. Biochemical Pharmacology 2008, 76, 453-462.
In order to select novel proteasome inhibitor compounds, it is necessary to indirectly measure the activity of this proteasome within cells. To this end, we constructed a stable cell line, DLD-1 4Ub-Luc, arising from a human colon cancer cell line, which produces a chimeric reporter protein called 4Ub-Luc. This protein is a fusion between a 4-ubiquitin (4Ub) label and luciferase (Luc). This label is capable to direct every proteins that carry it toward the proteasome. The 4Ub-Luc protein is thus efficiently degraded by the proteasome, in contrast to the “wild” non-fused Luc protein. When the DLD-1 4Ub-Luc cell line is treated with a proteasome inhibitor, the fusion protein is much less efficiently degraded and accumulates in the cell. This accumulation is detected by an increase in luciferase activity in the treated extract compared to the extract from untreated cells. The control consists of verifying that the inhibitor has no effect on accumulation of the wild Luc protein produced by the stable DLD-1 RF cell line. For both cell lines and for each product an induction factor is determined for the product tested (or the reference) corresponding to the ratio between the luciferase activities measured in cells treated with this product (or the reference) and cells treated with solvent alone.
The product's activity is then defined by its relative induction factor, i.e., the ratio of its induction factor (IF % luminescence) to that of the reference molecule epoxomicin (IF=100%; see data presented in the table below).
Thus, the test established by Pierre-Fabre is a cellular test that has the advantage, compared to a purely enzymatic test, of detecting only products capable of penetrating the cell.
Two cell lines are used for this test: DLD-1 RF and DLD-1 4Ub-Luc. The culture medium used is as follows: • MEM • 5% fetal calf serum • 5 ml of penicillin-streptomycin • 2.5 ml of FUNGIZONE® (Amphotericin B) • 10 ml of […]
Day 1: Inoculate white 96-well culture-treated plates (PerkinElmer White ViewPlate, product no. 6005181) with 100 μl of 1·10^5 c/ml cell suspension per well. Incubate for 24 hours so that the cells adhere. On each plate five columns will be inoculated with DLD-1 4Ub-Luc and five others with DLD-1 RF according to diagram 1 below.
Day 2: Remove the medium by turning the plates upside down on cotton, and then carry out the treatment with the compounds of the invention, with solvent alone or with a reference compound such as epoxomicin. […]
The columns are paired (examples 2 and 8, 3 and 9, 4 and 10 and 5 and 11) and treated with the same compound. Columns 6 and 7 receive the experimental control, namely 0.1% DMSO in culture medium for wells B, C, D, and E of columns 6 and 7, and the positive control (10^−7 M epoxomicin) in wells F and G.
After incubation, turn the plate upside down on cotton to empty the wells, rinse with 50 μl of PBS to remove any trace of the cytotoxin tested and then add 50 μl of 5× passive lysis buffer (Promega, product no. E1941) diluted to ⅕ in water. Shake energetically using a plate shaker for 5 to 10 minutes at room temperature before freezing at −20° C.
Luciferase activity is measured using a Luciferase Assay System 10-Pack kit (Promega, product no. E1501).
On the day luciferase activity is to be measured, defrost the plates and wait until they have returned to room temperature. The optimal temperature for luciferase activity is 20-25° C.
Reconstitute the firefly luciferase substrate by defrosting the buffer and then adding 10 ml of buffer to the bottle containing the freeze-dried substrate. Wait until the solution is at room temperature before beginning the assay. […]

[1] = concentration tested 5 · 10^−6 M
[2] = concentration tested 5 · 10^−7 M

SMILES | relative induction factor (IF % luminescence) versus epoxomicin [1] [%] | relative induction factor (IF % luminescence) versus epoxomicin (concentration tested 10^−5 M) [%] | relative induction factor (IF % luminescence) versus epoxomicin (concentration tested 10^−6 M) [%] | relative induction factor (IF % luminescence) versus epoxomicin (concentration tested 5 · 10^−6 M, hydrochloride) [%] | relative induction factor (IF % luminescence) versus epoxomicin [2] [%] | relative induction factor (IF % luminescence) versus epoxomicin (concentration tested 10^−5 M, hydrochloride) [%] | relative induction factor (IF % luminescence) versus epoxomicin (concentration tested 10^−6 M, hydrochloride) [%]
C=C(C(=O)[C@H](O)[C@@H](C)[C@H]1[C@@H](OC(C)=O)C[C@@]2(C)C3CCC4[C@H](C)C(=O)C=C[C@@]45C[C@@]35CC[C@]12C)[C@@H](C)COC(=O)CNC(=O)OC(C)(C)C (stereo partly drawn) [Compound 58, 22-deacetyl-neoboutomellerone 26-N-Boc-glycinate] | 46 | 10 | 8 | – | – | – | –
C=C(C(=O)[C@H](OC(C)=O)[C@@H](C)[C@H]1[C@@H](OC(C)=O)C[C@@]2(C)C3CCC4[C@H](C)C(=O)C=C[C@@]45C[C@@]35CC[C@]12C)[C@@H](C)COC(=O)CN(C)C (stereo partly drawn) [Compound 63, neoboutomellerone 26-N-dimethyl glycinate hydrochloride] | – | – | – | 11 | 66 | 3 | 50
C=C(C(=O)[C@H](OC(C)=O)[C@@H](C)[C@H]1[C@@H](OC(C)=O)C[C@@]2(C)[C@@H]3CC[C@H]4[C@H](C)C(=O)C=C[C@@]45C[C@@]35CC[C@]12C)[C@@H](C)COP(=O)(O)O [Compound 90, 26-phosphate-neoboutomellerone N-methyl Glutamine Salt] | 4 | 51 | 1 | – | – | – | –
C=C(C(=O)[C@H](OC(C)=O)[C@@H](C)[C@H]1[C@@H](OC(C)=O)C[C@@]2(C)[C@@H]3CC[C@H]4[C@H](C)C(=O)C=C[C@@]45C[C@@]35CC[C@]12C)[C@@H](C)COC(=O)Nc1ccc(N(C)C)cc1 [Compound 25, 26-N-(4-N,N-dimethylaniline)carbamate-neoboutomellerone] | 51 | 60 | 49 | – | 19 | – | –
C=C(C(=O)[C@H](OC(C)=O)[C@@H](C)[C@H]1[C@@H](OC(C)=O)C[C@@]2(C)[C@@H]3CC[C@H]4[C@H](C)C(=O)C=C[C@@]45C[C@@]35CC[C@]12C)[C@@H](C)COC(=O)N1CCN(C)CC1 [Compound 22, 26-N—(N-methylpiperazine)carbamate-neoboutomellerone hydrochloride] | 4 | 1 | 68 | – | 8 | – | –
C=C(C(=O)[C@H](OC(C)=O)[C@@H](C)[C@H]1[C@@H](OC(C)=O)C[C@@]2(C)[C@@H]3C[C@@H](O)[C@H]4[C@H](C)C(=O)C=C[C@@]45C[C@@]35CC[C@]12C)[C@@H](C)CO [Compound 6, 6-hydroxy-neoboutomellerone] | 31 | – | 5 | – | – | – | –
C=C(C(=O)[C@H](OC(C)=O)[C@@H](C)[C@H]1[C@@H](OC(C)=O)C[C@@]2(C)[C@@H]3CC[C@H]4[C@H](C)/C(=N/NC(N)=O)C=C[C@@]45C[C@@]35CC[C@]12C)[C@@H](C)CO [Compound 35, 3-semicarbazone-neoboutomellerone] | 99 | 30 | 1 | – | – | – | –
C=C(C(=O)[C@H](OC(=O)CCC(=O)O)[C@@H](C)[C@H]1[C@@H](OC(C)=O)C[C@@]2(C)C3CCC4[C@H](C)C(=O)C=C[C@@]45C[C@@]35CC[C@]12C)[C@@H](C)COC(C)=O (stereo partly drawn) [Compound 74, 22-deacetyl-22-succinate-26-acetyl-neoboutomellerone N-methylglucamine salt] | 14 | 2 | 60 | – | – | – | –
C=C(C(=O)[C@H](OC(C)=O)[C@@H](C)[C@H]1[C@@H](OC(C)=O)C[C@@]2(C)C3CCC4[C@H](C)C(=O)C=C[C@@]45C[C@@]35CC[C@]12C)[C@@H](C)COC1(C)OC2OC(COC(C)=O)C(OC(C)=O)C(OC(C)O)C2O1 (stereo partly drawn) [Compound 82, Neoboutomellerone 26-(2,3,4,6-tetraacetyl-glucosylate)] | 59 | 48 | 2 | – | – | – | –
C=C(C(=O)[C@H](OC(C)=O)[C@@H](C)[C@H]1[C@@H](OC(C)=O)C[C@@]2(C)C3CCC4C(C)C(=O)C=CC45CC35CC[C@]12C)[C@@H](C)CO (stereo partly drawn) [Compound 4, Diastereoisomer of Ring A of Neoboutomellerone] | 84 | 24 | 2 | – | – | – | –
C=C(C(=O)[C@H](O)[C@@H](C)[C@H]1[C@@H](OC(C)=O)C[C@@]2(C)C3CCC4[C@H](C)C(=O)C=C[C@@]45C[C@@]35CC[C@]12C)[C@@H](C)COC(=O)CN(C)C (stereo partly drawn) [Compound 64, 22-deacetyl-neoboutomellerone 26-N-dimethyl glycinate] | 35 | 7 | 22 | – | – | – | –
C=C(C(=O)[C@H](OC(=O)CCl)[C@@H](C)[C@H]1[C@@H](OC(C)=O)C[C@@]2(C)C3CCC4[C@H](C)C(=O)C=C[C@@]45C[C@@]35CC[C@]12C)[C@@H](C)COC(C)=O (stereo partly drawn) [Compound 61, 22-chloroacetyl-26-acetyl-neoboutomellerone] | 21 | 6 | 64 | – | 23 | – | –
CC(=O)O[C@H]1C[C@@]2(C)[C@@H]3CC[C@H]4[C@H](C)C(=O)C=C[C@@]45C[C@@]35CC[C@]2(C)[C@H]1[C@H](C)[C@@H](OC(C)=O)C12OCC(C)C1Cc1ccc(O)cc1O2 (stereo partly drawn) [Compound 88, Neoboutomellerone Resorcinol Derivative] | 47 | 78 | 1 | – | – | – | –
C=C(C(=O)[C@H](OC(C)=O)[C@@H](C)[C@H]1[C@@H](OC(C)=O)C[C@@]2(C)C3CCC4[C@H](C)C(=O)C=C[C@@]45C[C@@]35CC[C@]12C)[C@@H](C)COP(=O)(O)O (stereo partly drawn) [Compound 89, 26-phosphate-neoboutomellerone] | 3 | 40 | 1 | – | – | – | –
C=C(C(=O)[C@H](OC(C)=O)[C@@H](C)[C@H]1[C@@H](OC(C)=O)C[C@@]2(C)[C@@H]3CC[C@H]4[C@H](C)C(=O)C=C[C@@]45C[C@@]35CC[C@]12C)[C@@H](C)COC(C)=O [Compound 18, 26-acetyl-neoboutomellerone] | 48 | – | 12 | – | 1 | – | –
